# Assay results as given in patent US7491819B1 (priority 2004, dated 2009).
# Target: T1, HIV-integrase (Human immunodeficiency virus type 1 group M subtype B, UniProt P12497)
# T1 construct: Recombinant integrase (0.26 ng) was incubated with the beads
# Assay: HIV-Integrase Inhibition Activity (SPA bead strand-transfer assay)
# Type: biochemical
# Conditions: Table 1; read-out: Activity (HIV-integrase inhibition, IC50 class)
# Description: HIV-Integrase Inhibition Activity. To evaluate in-vitro activity against HIV-integrase, 5 pmole of biotin labeled substrate DNA was bound to 100 μg of Streptavidin coated PVT SPA beads (Amersham Pharmacia Biotech). Recombinant integrase (0.26 ng) was incubated with the beads for 90 min at 37° C. Unbound enzyme was removed by washing the complex followed by addition of inhibitors and 0.1 fmol of P33 labeled target DNA. The reaction was stopped by adding EDTA to a final concentration of 10 mM. Samples were counted in TopCountNXT (Packard) and the CPM was used as a measure of integration. The reaction condition was as described in A. Engelman and R. Craigie, J. Virol 69, 5908-5911 (1995). The sequences of substrate and target DNA were described in Nucleic Acid Research 22, 1121-1122 (1994).
row,SMILES,IC50
1,"CNC(=O)c1cc(F)ccc1CNC(=O)c1nc2n(c(=O)c1O)CCOC2 [Example 3, Pyrimido[2,1-c][1,4]oxazine-2-carboxamide, N-[[4-fluoro-2-[(methylamino)carbonyl]phenyl]methyl]-4,6,7,9-tetrahydro-3-hydroxy-4-oxo-]",2 to 100 nM
2,"Cc1ccc(CNC(=O)c2nc3n(c(=O)c2O)CCOC3C)cc1C (centres unmarked) [Example 8, Pyrimido[2,1-c][1,4]oxazine-2-carboxamide, N-[(3,4-dimethylphenyl)methyl]-4,6,7,9-tetrahydro-3-hydroxy-9-methyl-4-oxo-]",2 to 100 nM
3,"CNC(=O)c1cc(F)ccc1CNC(=O)c1nc2n(c(=O)c1O)CCOC2C (centres unmarked) [Example 9, Pyrimido[2,1-c][1,4]oxazine-2-carboxamide, N-[[4-fluoro-2-[(methylamino)carbonyl]phenyl]methyl]-4,6,7,9-tetrahydro-3-hydroxy-9-methyl-4-oxo-]",2 to 100 nM
4,"CCC1OCCn2c1nc(C(=O)NCc1ccc(F)cc1)c(O)c2=O (centres unmarked) [Example 10, Pyrimido[2,1-c][1,4]oxazine-2-carboxamide, 9-ethyl-N-[(4-fluorophenyl)methyl]-4,6,7,9-tetrahydro-3-hydroxy-4-oxo-]",2 to 100 nM
5,"CCC1OCCn2c1nc(C(=O)NCc1ccc(F)c(C)c1)c(O)c2=O (centres unmarked) [Example 11, Pyrimido[2,1-c][1,4]oxazine-2-carboxamide, 9-ethyl-N-[(4-fluoro-3-methylphenyl)methyl]-4,6,7,9-tetrahydro-3-hydroxy-4-oxo-]",2 to 100 nM
6,"CCC1OCCn2c1nc(C(=O)NCc1ccc(Cl)c(Cl)c1)c(O)c2=O (centres unmarked) [Example 12, Pyrimido[2,1-c][1,4]oxazine-2-carboxamide, N-[(3,4-dichlorophenyl)methyl]-9-ethyl-4,6,7,9-tetrahydro-3-hydroxy-4-oxo-]",2 to 100 nM
7,"CCC1OCCn2c1nc(C(=O)NCc1ccc(C)c(C)c1)c(O)c2=O (centres unmarked) [Example 13, Pyrimido[2,1-c][1,4]oxazine-2-carboxamide, N-[(3,4-dimethylphenyl)methyl]-9-ethyl-4,6,7,9-tetrahydro-3-hydroxy-4-oxo-]",2 to 100 nM
8,"CCC1OCCn2c1nc(C(=O)NCc1ccc(F)c(Cl)c1)c(O)c2=O (centres unmarked) [Example 14, Pyrimido[2,1-c][1,4]oxazine-2-carboxamide, N-[(3-chloro-4-fluorophenyl)methyl]-9-ethyl-4,6,7,9-tetrahydro-3-hydroxy-4-oxo-]",2 to 100 nM
9,"CCC1OCCn2c1nc(C(=O)NCc1ccc(F)cc1C(=O)NC)c(O)c2=O (centres unmarked) [Example 15, Pyrimido[2,1-c][1,4]oxazine-2-carboxamide, 9-ethyl-N-[[4-fluoro-2-[(methylamino)carbonyl]phenyl]methyl]-4,6,7,9-tetrahydro-3-hydroxy-4-oxo-]",2 to 100 nM
10,"CCC1OCCn2c1nc(C(=O)NCc1ccc(F)cc1-n1cncn1)c(O)c2=O (centres unmarked) [Example 16, Pyrimido[2,1-c][1,4]oxazine-2-carboxamide, 9-ethyl-N-[[4-fluoro-2-(1H-1,2,4-triazol-1-yl)phenyl]methyl]-4,6,7,9-tetrahydro-3-hydroxy-4-oxo-]",2 to 100 nM
11,"CC(C)C1OCCn2c1nc(C(=O)NCc1ccc(F)cc1)c(O)c2=O (centres unmarked) [Example 17, Pyrimido[2,1-c][1,4]oxazine-2-carboxamide, N-[(4-fluorophenyl)methyl]-4,6,7,9-tetrahydro-3-hydroxy-9-(1-methylethyl)-4-oxo-]",2 to 100 nM
12,"Cc1cc(CNC(=O)c2nc3n(c(=O)c2O)CCOC3C(C)C)ccc1F (centres unmarked) [Example 18, Pyrimido[2,1-c][1,4]oxazine-2-carboxamide, N-[(4-fluoro-3-methylphenyl)methyl]-4,6,7,9-tetrahydro-3-hydroxy-9-(1-methylethyl)-4-oxo-]",2 to 100 nM
13,"Cc1cc(CNC(=O)c2nc3n(c(=O)c2O)CCOC3(C)C)ccc1F [Example 20, Pyrimido[2,1-c][1,4]oxazine-2-carboxamide, N-[(4-fluoro-3-methylphenyl)methyl]-4,6,7,9-tetrahydro-3-hydroxy-9,9-dimethyl-4-oxo-]",2 to 100 nM
14,"CC1(C)OCCn2c1nc(C(=O)NCc1ccc(F)cc1-n1cncn1)c(O)c2=O [Example 21, Pyrimido[2,1-c][1,4]oxazine-2-carboxamide, N-[[4-fluoro-2-(1H-1,2,4-triazol-1-yl)phenyl]methyl]-4,6,7,9-tetrahydro-3-hydroxy-9,9-dimethyl-4-oxo-]",2 to 100 nM
15,"CC1(C)OCCn2c1nc(C(=O)NCc1ccc(-n3cncn3)cc1F)c(O)c2=O [Example 22, Pyrimido[2,1-c][1,4]oxazine-2-carboxamide, N-[[2-fluoro-4-(1H-1,2,4-triazol-1-yl)phenyl]methyl]-4,6,7,9-tetrahydro-3-hydroxy-9,9-dimethyl-4-oxo-]",100 to 1000 nM
16,"CC1(C)OCCn2c1nc(C(=O)NCc1ccc(F)cc1N1CCOCC1)c(O)c2=O [Example 23, Pyrimido[2,1-c][1,4]oxazine-2-carboxamide, N-[[4-fluoro-2-(4-morpholinyl)phenyl]methyl]-4,6,7,9-tetrahydro-3-hydroxy-9,9-dimethyl-4-oxo-]",2 to 100 nM
17,"CC1(C)OCCn2c1nc(C(=O)NCc1ccc(N3CCOCC3)cc1F)c(O)c2=O [Example 24, Pyrimido[2,1-c][1,4]oxazine-2-carboxamide, N-[[2-fluoro-4-(4-morpholinyl)phenyl]methyl]-4,6,7,9-tetrahydro-3-hydroxy-9,9-dimethyl-4-oxo-]",100 to 1000 nM
18,"CC1(C)OCCn2c1nc(C(=O)NCCCc1ccc(Cl)c(Cl)c1)c(O)c2=O [Example 25, Pyrimido[2,1-c][1,4]oxazine-2-carboxamide, N-[3-(3,4-dichlorophenyl)propyl]-4,6,7,9-tetrahydro-3-hydroxy-9,9-dimethyl-4-oxo-]",100 to 1000 nM
19,"CC1(C)OCCn2c1nc(C(=O)NCCCc1ccc(F)cc1)c(O)c2=O [Example 26, Pyrimido[2,1-c][1,4]oxazine-2-carboxamide, N-[3-(4-fluorophenyl)propyl]-4,6,7,9-tetrahydro-3-hydroxy-9,9-dimethyl-4-oxo-]",2 to 100 nM
20,"CC1(C)OCCn2c1nc(C(=O)NCc1ccc(F)cc1N1CCCCS1(=O)=O)c(O)c2=O [Example 27, Pyrimido[2,1-c][1,4]oxazine-2-carboxamide, N-[[4-fluoro-2-(tetrahydro-1,1-dioxido-2H-1,2-thiazin-2-yl)phenyl]methyl]-4,6,7,9-tetrahydro-3-hydroxy-9,9-dimethyl-4-oxo-]",2 to 100 nM
21,"CC1(C)OCCn2c1nc(C(=O)NCc1ncc(F)cc1F)c(O)c2=O [Example 28, Pyrimido[2,1-c][1,4]oxazine-2-carboxamide, N-[(3,5-difluoro-2-pyridinyl)methyl]-4,6,7,9-tetrahydro-3-hydroxy-9,9-dimethyl-4-oxo-]",2 to 100 nM
22,"CC1(C)OCCn2c1nc(C(=O)NCc1ccc(Cl)cn1)c(O)c2=O [Example 29, N-((5-Chloropyridin-2-yl)methyl)-3-hydroxy-9,9-dimethyl-4-oxo-4,6,7,9-tetrahydropyrimido[2,1-c][1,4]oxazine-2-carboxamide]",2 to 100 nM
23,"CC1(C)OCCn2c1nc(C(=O)NCc1ccc(F)c(Br)c1)c(O)c2=O [Example 30, Pyrimido[2,1-c][1,4]oxazine-2-carboxamide, N-[(3-bromo-4-fluorophenyl)methyl]-4,6,7,9-tetrahydro-3-hydroxy-9,9-dimethyl-4-oxo-]",2 to 100 nM
